Assay results as given in PMC10349806 (Nature Communications, 2023).
Several values for one entry are separate records, joined by “and”; a condition that tells them apart may be missing. Equal values may be shown once.

Assays:
PfCRT variant E207T = test: CQ uptake assay, oocytes expressing E207T; format: cell-based, Plasmodium falciparum
Experimental: (§1) Site-directed mutagenesis of PfCRT^Dd2 was performed as described using the megaprimer method with overlap extension[21],[54]. The primer pairs used are listed in Supplementary Table 6. Please note that a codon-optimized and oocyte-adapted version of PfCRT^Dd2 was used[22] (Supplementary Fig. 16). The resulting DNA fragment was cloned into the SP64T expression vector and verified by sequencing.
(§2) Oocytes were obtained as described previously. Briefly, adult (>2 years old) female X. laevis frogs (NASCO) were anesthetized in a cooled solution of ethyl 3-amino benzoate methanesulfonate (0.1%, w/v), followed by a surgical removal of parts of the ovary. The ovary lobes were carefully dissected and small pieces of oocytes were incubated in Ca^2+-free ND96 buffer (96 mM NaCl, 2 mM KCl, 1 mM MgCl2 buffered with 5 mM HEPES/NaOH, pH 7.5) supplemented with collagenase D (0.1%, w/v; Roche), BSA (0.5%, w/v), and 9 mm Na2HPO4 at 18 °C for 14-16 h while gentle shaking. After incubation, the oocytes were carefully washed several times with ND96 buffer (96 mM NaCl, 2 mM KCl, 1.8 mM CaCl2, 1 mM MgCl2 buffered with 5 mM HEPES/NaOH, pH 7.5) supplemented with 100 mg l^−1 gentamycin). Defolliculated and healthy-looking stage V-VI oocytes were manually selected for RNA microinjection. The RNA was generated as following: The codon-optimized sequences of PfCRT variants were cloned into the pSP64T expression vector. After vector linearization using the restriction endonucleases BamHI or SalI (New England Biolabs), transcription was performed using the in vitro SP6 mMessage mMachine Kit (Ambion)[34]. The obtained RNA was kept at −80 °C and diluted with nuclease-free water to a concentration of 0.6 μg μl^−1. Precision-bore glass capillary tubes (3.5-inch glass capillaries; Drummond Scientific Co.) were pulled on a vertical puller (P-87 Flaming/Brown micropipette puller, Sutter Instrument Co.), graduated, and placed on a microinjector (Nanoject II Auto-Nanoliter Injector, Drummond Scientific Co.). 50 nl of nuclease-free water alone (control oocytes) or 50 nl of 0.6 μg μl^−1 RNA were injected under stereomicroscopic control. Injected oocytes were incubated for 46–72 h at 18 °C with twice-daily buffer changes before usage in experiments.
Drug uptake assays were performed as described previously[21],[22],[24],[34]. […] The direction of radio-labeled drug transport is here from the mostly acidic extracellular solution (pH 4.5 or 6.0, as indicated) into the oocyte cytosol (pH ∼ 7.2), which corresponds to the efflux of drug from the acidic digestive vacuole (pH 5.2) into the parasite cytoplasm (pH 7.2). The topology of PfCRT in the oolemma is such that both the N- and C-terminus face the extracellular milieu[3],[22]. In the parasite, the N- and C-terminus face the lumen of the digestive vacuole. […] For determination of the amount of drug uptake for each oocyte, the reaction medium was removed and the oocytes were washed three times with 2 ml of ice-cold ND96 buffer. Each oocyte was individually transferred to a scintillation vial containing 5% sodium dodecyl sulfate (200 μl) for lysis. […] Oocytes that were injected with water instead of RNA were analyzed in parallel, representing the uptake of a drug by diffusion and/or endogenous permeation pathways. […] The specific PfCRT-mediated uptake was determined by subtracting the corresponding background value measured in water-injected oocytes from that of PfCRT-expressing oocytes. […]

PfCRT variant F291A = target: T1, PfCRT variant F291A (Plasmodium falciparum, UniProt Q9N623, A220S/F291A/I356T/K76T/M74I/N326S/N75E/Q271E/R371I); test: CQ uptake assay, oocytes expressing F291A; format: cell-based
T1 sequence (Q9N623 1-424 M74I/N75E/K76T/A220S/Q271E/F291A/N326S/I356T/R371I): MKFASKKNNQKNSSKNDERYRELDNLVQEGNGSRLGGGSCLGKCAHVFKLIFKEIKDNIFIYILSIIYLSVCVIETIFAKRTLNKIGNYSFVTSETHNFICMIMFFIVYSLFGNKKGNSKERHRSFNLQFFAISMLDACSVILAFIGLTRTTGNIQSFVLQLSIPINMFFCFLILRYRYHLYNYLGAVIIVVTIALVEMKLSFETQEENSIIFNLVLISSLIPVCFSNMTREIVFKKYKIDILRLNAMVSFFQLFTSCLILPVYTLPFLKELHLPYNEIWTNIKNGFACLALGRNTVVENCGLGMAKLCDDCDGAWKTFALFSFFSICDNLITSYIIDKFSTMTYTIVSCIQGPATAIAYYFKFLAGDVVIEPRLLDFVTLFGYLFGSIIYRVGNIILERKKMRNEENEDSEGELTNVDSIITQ
Experimental: as §1, §2
Drug uptake assays were performed as described previously[21],[22],[24],[34]. […] The direction of radio-labeled drug transport is here from the mostly acidic extracellular solution (pH 4.5 or 6.0, as indicated) into the oocyte cytosol (pH ∼ 7.2), which corresponds to the efflux of drug from the acidic digestive vacuole (pH 5.2) into the parasite cytoplasm (pH 7.2). The topology of PfCRT in the oolemma is such that both the N- and C-terminus face the extracellular milieu[3],[22]. In the parasite, the N- and C-terminus face the lumen of the digestive vacuole. CQ uptake kinetics were performed by incubating oocytes in ND96 buffer adjusted to a pH of 4.5, 5.0, 5.5, or 6.0 and supplemented with 50 nM [^3H]CQ and one of 7 different CQ concentrations (10 µM, 50 µM, 100 µM, 200 µM, 300 µM, 400 µM, 500 µM CQ). The reaction was stopped at the 60 min time point, which is in the linear uptake range[22],[34] (Supplementary Fig. 17). […] The radioactivity of each sample was measured using a liquid scintillation analyzer Tri-Carb 4910 TR (PerkinElmer). Oocytes that were injected with water instead of RNA were analyzed in parallel, representing the uptake of a drug by diffusion and/or endogenous permeation pathways. […]

[1] = F291A, 50 µM CQ, 1 h, mean ± SEM

Compound: CCN(CC)CCCC(C)Nc1ccnc2cc(Cl)ccc12 (stereo not shown) [CQ, chloroquine]
- Activity at pH 6.0 (PfCRT variant E207T; E207T, 50 µM CQ, 1 h, mean ± SEM): 2.62 ± 0.31 pmol h-1 oocyte-1
- R-value (PfCRT variant E207T; E207T, CQ transport at pH 4.5 / pH 6.0): 0.91 ± 0.05
- E207T transport activity pH 4.5 (PfCRT variant E207T; pH 4.5, individual replicates, Fig 6b): 3.35 pmol oocyte-1 h-1 and 2.14 pmol oocyte-1 h-1 and 1.74 pmol oocyte-1 h-1
- E207T transport activity pH 6.0 (PfCRT variant E207T; pH 6.0, individual replicates, Fig 6b): 3.37 pmol oocyte-1 h-1 and 2.31 pmol oocyte-1 h-1 and 2.17 pmol oocyte-1 h-1
- E207T R-value (PfCRT variant E207T; ratio of activity pH 4.5 / pH 6.0): 0.99 and 0.93 and 0.80
- Activity at pH 4.5 (PfCRT variant F291A; [1]): 1.61 ± 0.31 pmol h-1 oocyte-1
- Activity at pH 6.0 (PfCRT variant F291A; [1]): 3.23 ± 0.24 pmol h-1 oocyte-1
- R-value (PfCRT variant F291A; F291A, CQ transport at pH 4.5 / pH 6.0): 0.52 ± 0.11
- F291A transport activity pH 4.5 (PfCRT variant F291A; pH 4.5, single replicates, Fig 1d left): 1.94 pmol oocyte-1 h-1 and 2.47 pmol oocyte-1 h-1 and 0.96 pmol oocyte-1 h-1 and 1.07 pmol oocyte-1 h-1
- F291A transport activity pH 6.0 (PfCRT variant F291A; pH 6.0, single replicates, Fig 1d left): 2.78 pmol oocyte-1 h-1 and 3.29 pmol oocyte-1 h-1 and 4.00 pmol oocyte-1 h-1 and 2.84 pmol oocyte-1 h-1
